The text below walks through data of ChEMBL document CHEMBL5712074, “Divergent clonal evolution of castration-resistant neuroendocrine prostate cancer” (Nat Med, 2016).

In this assay the test system is NCI-H660. Nature of the assay: Cytotoxicity against human NCI-H660 cells assessed as decrease in cell viability at 5 to 10 uM incubated for 48 hrs by CellTiter-Blue assay. As to conditions: dose 5-10 µM. Format: functional, cell-based.

Calls of active or inactive are those of the source. The rule behind the calls is not given here.

As to `CCCc1cc(C)[nH]c(=O)c1CNC(=O)c1cc(-c2ccnc(N3CCN(C)CC3)c2)cc2c1cnn2C(C)C`, the outcome was Active.
